Source: PubChem BioAssay AID1745844 (Carcinogenic Potency Database (CPDB), 2022)
“And” between values parts separate entries of the source, which are not always exact repeats. Equal entries are not always repeated. The source made the active and inactive calls. The rule behind the calls is not given here.

Tested on: rodent lifetime carcinogenesis bioassay, tumor incidence TD50
Experiment: carcinogenic potency in animals, long-term in vivo studies, CPDB compilation (AID 1745844)

c1ccncc1
TD50 (mouse, strain B6C3F1, females, in drinking water, site: all sites, lesion: hemangioma + hemangiosarcoma, dosed 104 weeks, study length 104 weeks): 690 mg/kg/day | TD50 (mouse, strain B6C3F1, females, in drinking water, site: all sites, lesion: hemangioma, dosed 104 weeks, study length 104 weeks): 868 mg/kg/day | TD50 (mouse, strain B6C3F1, females, in drinking water, site: any site (literature study), lesion: several types, types named in the paper, dosed 104 weeks, study length 104 weeks): 338 mg/kg/day | TD50 (mouse, strain B6C3F1, females, in drinking water, site: liver, lesion: hepatoblastoma + hepatocellular carcinoma, dosed 104 weeks, study length 104 weeks): 27.2 mg/kg/day | TD50 (mouse, strain B6C3F1, females, in drinking water, site: liver, lesion: hepatoblastoma, dosed 104 weeks, study length 104 weeks): 132 mg/kg/day | TD50 (mouse, strain B6C3F1, females, in drinking water, site: liver, lesion: hepatocellular adenoma + hepatoblastoma + hepatocellular carcinoma, dosed 104 weeks, study length 104 weeks): 150 mg/kg/day | TD50 (mouse, strain B6C3F1, females, in drinking water, site: liver, lesion: hepatocellular adenoma, dosed 104 weeks, study length 104 weeks): 41.9 mg/kg/day | TD50 (mouse, strain B6C3F1, females, in drinking water, site: liver, lesion: hepatocellular carcinoma, dosed 104 weeks, study length 104 weeks): 41.6 mg/kg/day | TD50 (mouse, strain B6C3F1, females, in drinking water, site: lung, lesion: alveolar/bronchiolar adenoma + alveolar/bronchiolar carcinoma, dosed 104 weeks, study length 104 weeks): 1990 mg/kg/day | TD50 (mouse, strain B6C3F1, males, in drinking water, site: any site (literature study), lesion: several types, types named in the paper, dosed 103 weeks, study length 103 weeks): 25700 mg/kg/day | TD50 (mouse, strain B6C3F1, males, in drinking water, site: liver, lesion: hepatoblastoma + hepatocellular carcinoma, dosed 103 weeks, study length 103 weeks): 22.1 mg/kg/day | TD50 (mouse, strain B6C3F1, males, in drinking water, site: liver, lesion: hepatoblastoma, dosed 103 weeks, study length 103 weeks): 68.1 mg/kg/day | TD50 (mouse, strain B6C3F1, males, in drinking water, site: liver, lesion: hepatocellular adenoma + hepatoblastoma + hepatocellular carcinoma, dosed 103 weeks, study length 103 weeks): 496 mg/kg/day | TD50 (mouse, strain B6C3F1, males, in drinking water, site: liver, lesion: hepatocellular adenoma, dosed 103 weeks, study length 103 weeks): 488 mg/kg/day | TD50 (mouse, strain B6C3F1, males, in drinking water, site: liver, lesion: hepatocellular carcinoma, dosed 103 weeks, study length 103 weeks): 28.6 mg/kg/day | TD50 (rat, strain Fischer 344, females, in drinking water, site: all sites, lesion: mononuclear-cell leukemia, dosed 104 weeks, study length 104 weeks): 31.2 mg/kg/day | TD50 (rat, strain Fischer 344, females, in drinking water, site: any site (literature study), lesion: several types, types named in the paper, dosed 104 weeks, study length 104 weeks): 32.9 mg/kg/day | TD50 (rat, strain Fischer 344, males, in drinking water, site: any site (literature study), lesion: several types, types named in the paper, dosed 103 weeks, study length 103 weeks): 31 mg/kg/day | TD50 (rat, strain Fischer 344, males, in drinking water, site: kidney, lesion: tubule adenoma + tubule carcinoma, dosed 103 weeks, study length 103 weeks): 67.3 mg/kg/day and 74.6 mg/kg/day | TD50 (rat, strain Fischer 344, males, in drinking water, site: kidney, lesion: tubule adenoma, dosed 103 weeks, study length 103 weeks): 73.7 mg/kg/day and 75.6 mg/kg/day | TD50 (rat, strain Fischer 344, males, in drinking water, site: liver, lesion: hepatocellular adenoma + hepatoblastoma + hepatocellular carcinoma, dosed 103 weeks, study length 103 weeks): 160 mg/kg/day | TD50 (rat, strain Wistar, males, in drinking water, site: any site (literature study), lesion: several types, types named in the paper, dosed 103 weeks, study length 103 weeks): 7.14 mg/kg/day | TD50 (rat, strain Wistar, males, in drinking water, site: testis, lesion: interstitial-cell adenoma, bilateral + interstitial-cell adenoma, dosed 103 weeks, study length 103 weeks): 22.4 mg/kg/day | TD50 (rat, strain Wistar, males, in drinking water, site: thyroid gland, lesion: follicular-cell adenoma, bilateral + follicular-cell adenoma, dosed 103 weeks, study length 103 weeks): 38.4 mg/kg/day

CC(O)CN(CC(C)O)CC(C)O (stereo not given)
carcinogen call (rat, strain Wistar, males, in feed, site: liver, lesion: one or several types, types not named, dosed 102 weeks, study length 102 weeks): negative (inactive)

C=CC(=O)c1ccc2c(c1)OCO2
carcinogen call (rat, strain Charles River CD (Sprague-Dawley), males, in feed, site: liver, lesion: carcinoma, dosed 73 weeks, study length 95 weeks): negative (inactive)

CC(C)CN(N=O)C(=N)N[N+](=O)[O-]
carcinogen call (rat, strain Wistar, males, in drinking water, site: stomach, glandular, lesion: one or several types, types not named, dosed 52 weeks, study length 78 weeks): negative (inactive)

C#CC(C)(C)NC(=O)c1cc(Cl)cc(Cl)c1
TD50 (mouse, strain B6C3F1, males, in feed, site: liver, lesion: hepatocellular carcinoma, dosed 78 weeks, study length 78 weeks): 1480 mg/kg/day | TD50 (mouse, strain B6C3F1, males, in feed, site: liver, lesion: hepatocellular carcinoma, dosed 104 weeks, study length 104 weeks): 140 mg/kg/day | TD50 (mouse, strain B6C3F1, males, in feed, site: liver, lesion: several types, types named in the paper, dosed 52 weeks, study length 52 weeks): 1360 mg/kg/day | TD50 (mouse, strain B6C3F1, males, in feed, site: liver, lesion: several types, types named in the paper, dosed 78 weeks, study length 78 weeks): 700 mg/kg/day | TD50 (mouse, strain B6C3F1, males, in feed, site: liver, lesion: several types, types named in the paper, dosed 104 weeks, study length 104 weeks): 209 mg/kg/day

O=C(O)c1ccccc1
carcinogen call (mouse, strain Swiss albino, females, in drinking water, site: liver, lesion: one or several types, types not named, dosed 134 weeks, study length 134 weeks): negative (inactive) | carcinogen call (mouse, strain Swiss albino, females, in drinking water, site: lung, lesion: one or several types, types not named, dosed 134 weeks, study length 134 weeks): negative (inactive) | TD50 (mouse, strain Swiss albino, males, in drinking water, site: liver, lesion: hepatoma, dosed 113 weeks, study length 113 weeks): 133000 mg/kg/day (inactive) | carcinogen call (mouse, strain Swiss albino, males, in drinking water, site: lung, lesion: one or several types, types not named, dosed 113 weeks, study length 113 weeks): negative (inactive) | TD50 (rat, strain Fischer 344, females, in feed, site: any site (literature study), lesion: malignant tumor, dosed 104 weeks, study length 108 weeks): 104000 mg/kg/day (inactive) | TD50 (rat, strain Fischer 344, females, in feed, site: any site (literature study), lesion: several types, types named in the paper, dosed 104 weeks, study length 108 weeks): 24900 mg/kg/day (inactive) | carcinogen call (rat, strain Fischer 344, males, in feed, site: any site (literature study), lesion: malignant tumor, dosed 104 weeks, study length 108 weeks): negative (inactive) | carcinogen call (rat, strain Fischer 344, males, in feed, site: any site (literature study), lesion: several types, types named in the paper, dosed 104 weeks, study length 108 weeks): negative (inactive)

COc1ccc(CCN2CCC(Nc3nc4ccccc4n3Cc3ccc(F)cc3)CC2)cc1
TD50 (mouse, strain Swiss, females, in feed, site: any site (literature study), lesion: several types, types named in the paper, dosed 78 weeks, study length 78 weeks): 164 mg/kg/day (inactive) | carcinogen call (mouse, strain Swiss, females, in feed, site: liver, lesion: hepatocellular adenoma, dosed 78 weeks, study length 78 weeks): negative (inactive) | carcinogen call (mouse, strain Swiss, females, in feed, site: lung, lesion: one or several types, types not named, dosed 78 weeks, study length 78 weeks): negative (inactive) | carcinogen call (mouse, strain Swiss, males, in feed, site: any site (literature study), lesion: several types, types named in the paper, dosed 78 weeks, study length 78 weeks): negative (inactive) | TD50 (mouse, strain Swiss, males, in feed, site: liver, lesion: hepatocellular adenoma, dosed 78 weeks, study length 78 weeks): 8770 mg/kg/day (inactive) | TD50 (mouse, strain Swiss, males, in feed, site: liver, lesion: hepatocellular carcinoma, dosed 78 weeks, study length 78 weeks): 788 mg/kg/day (inactive) | carcinogen call (mouse, strain Swiss, males, in feed, site: lung, lesion: one or several types, types not named, dosed 78 weeks, study length 78 weeks): negative (inactive) | carcinogen call (rat, strain Charles River Crl:COBS(WI)BR, females, in feed, site: any site (literature study), lesion: several types, types named in the paper, dosed 105 weeks, study length 105 weeks): negative (inactive) | TD50 (rat, strain Charles River Crl:COBS(WI)BR, females, in feed, site: liver, lesion: neoplastic nodule, dosed 105 weeks, study length 105 weeks): 309 mg/kg/day (inactive) | TD50 (rat, strain Charles River Crl:COBS(WI)BR, males, in feed, site: any site (literature study), lesion: several types, types named in the paper, dosed 105 weeks, study length 105 weeks): 32.5 mg/kg/day (inactive) | carcinogen call (rat, strain Charles River Crl:COBS(WI)BR, males, in feed, site: liver, lesion: neoplastic nodule, dosed 105 weeks, study length 105 weeks): negative (inactive)

Cc1ccc(S(=O)(=O)NC(=O)NN2CCCCCC2)cc1
carcinogen call (mouse, strain B6C3F1, females, in feed, site: any site (literature study), lesion: several types, types named in the paper, dosed 103 weeks, study length 104 weeks): negative (inactive) | carcinogen call (mouse, strain B6C3F1, males, in feed, site: any site (literature study), lesion: several types, types named in the paper, dosed 103 weeks, study length 104 weeks): negative (inactive) | TD50 (mouse, strain B6C3F1, males, in feed, site: lung, lesion: alveolar/bronchiolar adenoma + alveolar/bronchiolar carcinoma, dosed 103 weeks, study length 104 weeks): 24600 mg/kg/day | carcinogen call (rat, strain Fischer 344, females, in feed, site: any site (literature study), lesion: several types, types named in the paper, dosed 103 weeks, study length 105 weeks): negative (inactive) | carcinogen call (rat, strain Fischer 344, males, in feed, site: any site (literature study), lesion: several types, types named in the paper, dosed 103 weeks, study length 104 weeks): negative (inactive)

CC(=O)[O-].CC(=O)[O-].[Cd+2]
carcinogen call (mouse, strain Charles River CD1, females, in drinking water, site: any site (literature study), lesion: one or several types, types not named, dosed 130 weeks, study length 130 weeks): negative (inactive) | carcinogen call (mouse, strain Charles River CD1, females, in drinking water, site: lung, lesion: carcinoma, dosed 130 weeks, study length 130 weeks): negative (inactive) | carcinogen call (mouse, strain Charles River CD1, males, in drinking water, site: any site (literature study), lesion: one or several types, types not named, dosed 120 weeks, study length 120 weeks): negative (inactive) | carcinogen call (mouse, strain Charles River CD1, males, in drinking water, site: lung, lesion: carcinoma, dosed 120 weeks, study length 120 weeks): negative (inactive) | TD50 (rat, strain Long-Evans BLU:(LE), both sexes, in drinking water, site: any site (literature study), lesion: malignant tumor, dosed 175 weeks, study length 175 weeks): 5.1 mg/kg/day (inactive) | TD50 (rat, strain Long-Evans BLU:(LE), both sexes, in drinking water, site: any site (literature study), lesion: one or several types, types not named, dosed 175 weeks, study length 175 weeks): 1.81 mg/kg/day (inactive) | TD50 (rat, strain Long-Evans BLU:(LE), both sexes, in drinking water, site: liver, lesion: one or several types, types not named, dosed 175 weeks, study length 175 weeks): 37.7 mg/kg/day (inactive)

C=CCN(N)CC=C
TD50 (mouse, strain Swiss albino, females, in drinking water, site: forestomach, lesion: squamous-cell papilloma, dosed 100 weeks, study length 100 weeks): 332 mg/kg/day | carcinogen call (mouse, strain Swiss albino, females, in drinking water, site: liver, lesion: angioma, dosed 100 weeks, study length 100 weeks): negative (inactive) | carcinogen call (mouse, strain Swiss albino, females, in drinking water, site: liver, lesion: angiosarcoma, dosed 100 weeks, study length 100 weeks): negative (inactive) | TD50 (mouse, strain Swiss albino, females, in drinking water, site: lung, lesion: adenocarcinoma, dosed 100 weeks, study length 100 weeks): 112 mg/kg/day | TD50 (mouse, strain Swiss albino, females, in drinking water, site: lung, lesion: adenoma, dosed 100 weeks, study length 100 weeks): 37.8 mg/kg/day | TD50 (mouse, strain Swiss albino, females, in drinking water, site: lung, lesion: several types, types named in the paper, dosed 100 weeks, study length 100 weeks): 34.9 mg/kg/day | TD50 (mouse, strain Swiss albino, males, in drinking water, site: forestomach, lesion: squamous-cell papilloma, dosed 93 weeks, study length 93 weeks): 48.1 mg/kg/day | carcinogen call (mouse, strain Swiss albino, males, in drinking water, site: liver, lesion: angioma, dosed 93 weeks, study length 93 weeks): negative (inactive) | TD50 (mouse, strain Swiss albino, males, in drinking water, site: liver, lesion: angiosarcoma, dosed 93 weeks, study length 93 weeks): 723 mg/kg/day (inactive) | TD50 (mouse, strain Swiss albino, males, in drinking water, site: lung, lesion: adenocarcinoma, dosed 93 weeks, study length 93 weeks): 38.9 mg/kg/day | TD50 (mouse, strain Swiss albino, males, in drinking water, site: lung, lesion: adenoma, dosed 93 weeks, study length 93 weeks): 29.8 mg/kg/day | TD50 (mouse, strain Swiss albino, males, in drinking water, site: lung, lesion: several types, types named in the paper, dosed 93 weeks, study length 93 weeks): 25.7 mg/kg/day
